# According to paper PMC6468747 (Cancers, 2019):
# Read-outs that look alike come from different tables or passages of the source.
# How the values were obtained:
# [1] = tested on: panel of 6 human TNBC cell lines; assay: MTT cell growth assay, summary over the panel; format: cell-based; conditions: 7 days
# Description: Figure 3 In vitro characterization, pharmacokinetics and toxicity profile of VNLG-152R and its two enantiomers. (A) HPLC chromatograms racemic VNLG-152R (left panel) and the resolved enantiomers VNLG-152E1 and VNLG-152E2 (right panel). The conditions of HPLC procedure are presented in Supplementary Materials. (B) Table summarizing GI50 values (µM) each cell line treated with VNLG-152R and its enantiomers. TNBC cell subtypes were treated with listed compound (0.1 nmol/L–100 µmol/L) for 7 days and the GI50 values for the anti-proliferative effects of the compounds were determined from dose response curves (by a nonlinear regression analysis using Graph Pad Prism). Data represents the results from six independent experiments for each cell line. (C) Plasma concentration versus time profile after intravenous (IV, 2 mg/kg each, top panel) or oral (PO, 20 mg/kg each, bottom panel) of VNLG-152R (red), VNLG-152E1 (purple) and VNLG-152E2 (blue) to female CD1 mice. Values represent the mean plasma concentrations from three mice per time point. (D) Table of the pharmacokinetic parameters of various compounds after IV and PO dosing. AUC = area under the curve, T1/2 = elimination half-life, Cmax = maximum plasma concentration, F (%) = oral bioavailability. (E) Effects of VNLG-152R, VNLG-152E1 and VNLG-152E2 on body weight and clinical observations at chronic dose termination of study. Three different doses, i.e., 10, 25, and 50 mg/kg/day (formulated in 40% β-cyclodextrin in saline) of each compound were administered daily by oral gavage for 14 days. Each group consisted of three mice. Loss in body weight, a clinical sign of toxicity was observed during the 14 days of dosing and the maximum tolerated dose (MTD) was estimated following established procedures. Changes in body weight were scored on a scale of 0–4 as follows as described under methods. […]
# [2] = Plasma pharmacokinetics after single IV and PO dosing; format: in vivo, female CD1 mice; conditions: mouse, in vivo
# Description: 5. In vivo Pharmacokinetics (PK) Determination: These studies were Performed by Charles River Laboratories (CRL), Discovery Services, 251 Ballardvale Street, Wilmington, MA 01887, USA.
# The PK studies were performed according to the guidelines and approval of CRL Institutional Animal Care and Use Committee (IACUC) under IACUC approval no: P04172013.
# A total of sixty‐four naïve female CD‐1 mice (including 6 spare animals) were received from Charles River Laboratories, Kingston, NY. Following an acclimation period, the animals were assigned to the study based on acceptable health as determined by a staff veterinarian. For dosing, animals were placed into six groups as detailed in the study design table below. All animals were fasted overnight prior to dosing and food was returned after the 4‐h post‐dose blood collections.
# Each animal in Groups 1, 3 and 5 received a single administration of prepared test article by intravenous tail administration at a target dose level of 2 mg/kg and dose volume of 10 mL/kg. Each animal in Groups 2, 4 and 6 received a single administration of prepared test article by oral gavage at a target dose level of 20 mg/kg and at a dose volume of 10 mL/kg. Dosing was performed on August 13, 2015 as detailed in the study protocol and was completed without incident. Dose administration […]
# Following dosing and at each sample collection time
# Group Mices Test Compound Level Conc. Volume Dose Vehicle Route […]
# Interim blood samples were collected in a leapfrog design from each animal by puncture of a submandibular vein and a terminal blood sample was collected from each animal by intracardiac puncture following euthanasia with CO2 as outlined in the sample collection table below.
# All blood samples were transferred into tubes containing K2EDTA anticoagulant and placed on wet ice immediately after collection until centrifuged at 2200 × g for 10 min at […] to isolate plasma.
# The resulting plasma was transferred to individual polypropylene tubes in a 96‐well plate format and immediately placed on dry ice until storage at nominally […] before transfer to the Test Facility’s bioanalysis group for concentration and HPLC analysis. Individual blood collection times are […]
# Table S4. Sample Collections.
# Collection Information Whole Blood for Plasma Whole Blood for Plasma
# Subgroup A (n = 3) 5 min & 1 h post‐dose 8 h post‐dose
# Subgroup B (n = 3) 15 min & 4 h post‐dose 12 h post‐dose
# Subgroup C (n = 3) 30 min & 6 h post‐dose 24 h post‐dose
# Subgroup D (n = 2) Not applicable 2 h post‐dose
# Subgroup A (n = 3) 15 min & 2 h post‐dose 8 h post‐dose
# Subgroup B (n = 3) 30 min & 4 h post‐dose 12 h post‐dose
# Subgroup C (n = 3) 1 hr & 6 h post‐dose 24 h post‐dose
# Collection conditions K2EDTA K2EDTA
# Collection route Submandibular Intracardiac puncture
# Volume/Time point 100 μL Maximum volume
# The plasma samples for Groups 1‐6, Subgroups A‐C were analyzed for test article concentration using a Research Grade LC MS/MS Assay (RGA‐Level 1). The bioanalytical report, including plasma […]
# Pharmacokinetic parameters were estimated from the plasma concentration‐time data using standard non‐compartmental methods and utilizing suitable analysis software (Watson 7.2 Bioanalytical LIMS, Thermo Electron Corp). Parameters were estimated using nominal sampling times relative to the start of each dose administration (within an acceptable tolerance limit).
# Concentrations below the limit of quantification were excluded from the pharmacokinetic analysis.
# The area under the plasma test item concentration versus time curve (AUC) was calculated using the linear‐log‐linear trapezoidal method. When practical, the terminal elimination phase of each concentration versus time curve was identified using at least the final three observed concentration values. The slope of the terminal elimination phase was determined using log linear regression on the unweighted concentration data.
# Parameter Description of Parameter […]
# [3] = 14-day oral toxicity / MTD study; set-up: species or system female athymic nude mice; conditions: mouse, in vivo, po
# Description: Three different doses, i.e., 10, 25, and 50 mg/kg/day (formulated in 40% β-cyclodextrin in saline) of each compound were administered daily by oral gavage for 14 days. Each group consisted of 3 mice. Their body weight kinetics (loss in body weight, a clinical sign of toxicity) was observed during the 14 days of dosing following established procedures. Changes in body weight were scored on a scale of 0–4 as follows: (1) Weight loss: (10 g = 4, 7–9 g = 3, 4–6 g = 2, 1–3 g = 1; severe = 3, moderate = 2, slight = 1, none = 0).
# MDA-MB-231 xenografts = assay: MDA-MB-231 xenograft, racemate vs enantiomers, IP vs PO; format: in vivo, nude mice; conditions: 20 mg/kg per day PO, 36 days
# Description: The second experiment designed to compare heal-to-head IP versus oral dosing (PO) and the efficacy of racemic VNLG-152 versus its two enantiomers was like that described above but consisted of eight groups. When the tumor volumes had reached about 100 mm^3, the mice were randomly divided into 8 groups of 5 mice each. The two control groups received vehicle (IP or OP) and the other six groups received VNLG-152R (20 mg/kg, IP or PO, once daily), VNLG-152E1 (20 mg/kg, IP or PO, once daily), and VNLG-152E2 (20 mg/kg, IP or PO, once daily) five days/week. These treatments continued for 36 days and the tumors were measured and processed as described above.
# Br-001 xenograft tumors = assay: Patient-derived TNBC xenograft (PDX), PO, racemate vs E1; format: in vivo, NSG mice; conditions: 20 mg/kg PO
# Description: The second PDX tumor model experiment was conducted to assess the efficacy of VNLG-152R versus VNLG-152E1 following PO administration. When the tumor volumes had reached about 100 mm^3, the mice were randomly divided into three groups of five mice each. The control group received vehicle (PO) and the other two groups received VNLG-152R (20 mg/kg, PO, once daily), and VNLG-152E1 (20 mg/kg, PO, once daily) five days/week. These treatments continued for 15 days and the tumors were measured and processed as described above.
# Mnk1 = biological target: T1, Mnk1 (Homo sapiens, UniProt Q9BUB5); assay: Streptavidin-agarose pull-down with biotinylated VNLG-152R; format: binding; conditions: 50 µg
# T1 construct: incubated with recombinant full length Mnk1 proteins or cell lysates overnight at 4 °C; GST
# Description: The streptavidin–agarose pull-down assay was performed as described previously. Biotin-VNLG-152R (50 µg) and biotin (50 µg; negative control) were preincubated with streptavidin agarose beads (Invitrogen, Waltham, MA, USA) overnight at 4 °C. The biotin-VNLG-152R-conjugated beads were washed three times with cold PBS and then incubated with recombinant full length Mnk1 proteins or cell lysates overnight at 4 °C. The bead-bound proteins were incubated and separated on a 10% SDS-PAGE and detected by western blot analysis for Mnk1.
# MDA-MB-231 cells [4] = assay: Head-to-head MTT antiproliferative assay, 6-day exposure; format: cell-based, human; conditions: Homo sapiens, MDA-MB-231, 144 h
# Description: (§1) Figure 2 VNLG-152R inhibits mTORC1 signaling and the production of pro-inflammatory cytokines. (A) MDA-MB-231 and MDA-MB-468 cells were treated with the indicated concentrations of VNLG-152R for 72 h. Cell lysates were analyzed by immunoblotting with the indicated antibodies. (B) Head-to-head antiproliferative effects of VNLG-152R and eFT508 on MDA-MB-231 and MDA-MB-468 cells. The dose-response curves were generated from MTT assays after 6-day exposure to different concentrations of the compounds. Each point is a mean of replicates from three independent experiments. (C–E) MDA-MB-231 cell were treated with the indicated concentration of VNLG-152R or eFT508 for 72 h. Cell supernatants were collected, and the indicated cytokines were quantitated by Multiplex Luminex assay.
# (§2) Cell growth inhibition assay was performed as described previously. For cell growth experiment, cells were treated with the VNLG-152R, VNLG-152E1 or VNLG-15E2 for 7 days. MTT assay was performed at the end of the experiment. Results represent the mean ± standard deviation of three independent experiments.
# MDA-MB-468 cells = assay: as above; format: cell-based, human; conditions: Homo sapiens, MDA-MB-468, 144 h
# Description: as §1, §2
# MDA-MB-231 cells [5] = assay: Multiplex Luminex supernatant cytokine analysis; format: cell-based, human; conditions: 72 h, cell supernatants
# Description: Supernatants from the MDA-MB-231 (TNBC) cells in Fetal Bovine Serum (FBS) containing media were treated with various concentrations of VNLG-12R for 72 h, were collected, and various cytokines and growth factor concentrations (CLCX-1, IL-6, IL8 and TNF-α) were determined by Luminex multiplex assay kit (Millipore, Billerica, MA, USA) according to the manufacturer’s instructions. The expressions of secreted cytokines were read on Luminex 100 reader. The data was then analyzed using the BioPlex Software (BioRad, Hercules, CA, USA). The Luminex multiplex assays were conducted at the University of Maryland School of Medicine Cytokine Core Laboratory (Baltimore, MD, USA).
# [6] = mean over 6 TNBC cell lines, read-out: average GI50
# [7] = range over 6 TNBC cell lines, read-out: range of GI50
# T1 sequence (Q9BUB5 whole entry): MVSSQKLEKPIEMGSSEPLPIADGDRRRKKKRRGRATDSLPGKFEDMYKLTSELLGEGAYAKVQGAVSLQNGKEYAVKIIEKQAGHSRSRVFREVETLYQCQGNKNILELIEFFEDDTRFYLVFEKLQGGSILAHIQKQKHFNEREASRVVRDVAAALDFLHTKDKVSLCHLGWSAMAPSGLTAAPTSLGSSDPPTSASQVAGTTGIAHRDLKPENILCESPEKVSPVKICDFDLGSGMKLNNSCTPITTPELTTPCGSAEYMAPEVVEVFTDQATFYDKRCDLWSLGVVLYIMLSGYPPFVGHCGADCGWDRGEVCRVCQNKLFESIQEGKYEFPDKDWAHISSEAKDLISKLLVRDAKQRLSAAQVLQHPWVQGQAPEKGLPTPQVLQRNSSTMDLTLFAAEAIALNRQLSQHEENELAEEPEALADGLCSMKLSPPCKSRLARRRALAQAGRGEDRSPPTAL
GI50 (MDA-MB-231 cells [4]),GI50 (MDA-MB-468 cells),SMILES,"GI50 [1, 6]","GI50 [1, 7]",F (%) oral bioavailability [2],"AUC(0-inf) ([2]; iv, 2 mg/kg)","T1/2 ([2]; iv, 2 mg/kg)","AUC(0-inf) ([2]; po, 20 mg/kg)","Cmax ([2]; po, 20 mg/kg)","T1/2 ([2]; po, 20 mg/kg)",maximum tolerated dose (MTD) [3],TGI (MDA-MB-231 xenografts),changes in body weights (Br-001 xenograft tumors),"TGI (Br-001 xenograft tumors; 5 days per week, 15 days)",Mnk1 captured in streptavidin pull-down (Mnk1; MDA-MB-231 cells),Mnk1 captured in streptavidin pull-down (Mnk1; recombinant Mnk1 protein),"secreted IL-6 and IL-8, TNFα and chemokine CXCL1 (MDA-MB-231 cells [5])",secretion of CXCL1 (MDA-MB-231 cells [5])
,,"CC1=C(/C=C/C(C)=C/C=C/C(C)=C/C(=O)Nc2ccc(F)cc2)C(C)(C)CCC1n1ccnc1 (single isomer, unassigned) [VNLG-152E1]",2300 nM,980 to 4790 nM,161.9%,2100 ng·h/mL,1.78 h,34000 ng·h/mL,4880 ng/mL,4.49 h,> 50 mg/kg,78%,No changes in body weights were observed,79%,,,,
,,"CC1=C(/C=C/C(C)=C/C=C/C(C)=C/C(=O)Nc2ccc(F)cc2)C(C)(C)CCC1n1ccnc1 (single isomer, unassigned) [VNLG-152E2]",390 nM,100 to 1170 nM,72.8%,1840 ng·h/mL,1.10 h,13400 ng·h/mL,3590 ng/mL,4.02 h,> 50 mg/kg,,,,,,,
,,CC1=C(/C=C/C(C)=C/C=C/C(C)=C/C(=O)N(CCOC(=O)CCCC[C@@H]2SC[C@@H]3NC(=O)N[C@@H]32)c2ccc(F)cc2)C(C)(C)CCC1n1ccnc1 (stereo partly drawn) [VNLG-152R-biotin],,,,,,,,,,,,,direct binding of Mnk1 to VNLG-152R-biotin in MDA-MB-231 cells,substantial amounts of Mnk1 was found only in the VNLG-152R-biotin-treated sample,,
7070 nM,52500 nM,"Cc1cc(Nc2cc(N)ncn2)c(=O)n2c1C(=O)NC21CCCCC1.Cl [eFT508, 6′-[(6-aminopyrimidin-4-yl)amino]-8′-methyl-2′Hspiro[cyclohexane-1,3′-imidazo-[1,5-a]pyridine]-1′,5′-dione hydrochloride (1:1), reference compound]",,,,,,,,,,,,,,,dose-dependent reduction,seem to stimulate secretion of CXCL1
